Measurements published in patent EP0623343A1, “Ketamine analogues for the treatment of thrombocytopenia” (GENENTECH, INC., priority 1993, dated 1994).
Where two headings read alike, the source gives them in different places.

Key:
CMK cells = assay: CMK assay for thrombopoietin (TPO) induction of platelet antigen GPIIbIIIa expression; conditions: for minimal effective concentration: Homo sapiens, CMK; for CMK: Thrombopoietic activity, concentration at which active
C57BL6 mice = assay: Thrombopoietin (TPO) in vivo assay (Mouse Platelet Rebound Assay); conditions: @ 2 mg/mouse/d; IP injections on days 5 and 6 after anti-platelet serum
Procedure: Thrombopoietin (TPO) in vivo assay (Mouse Platelet Rebound Assay)
In vivo Assay for ³⁵S Determination of Platelet Production
C57BL6 mice (obtained from Charles River) were injected intraperitoneally (IP) with 1 ml goat anti-mouse platelet serum (6 amps) on day 1 to produce thrombocytopenia. On days 5 and 6, mice were given two IP injections of the factor or PBS as the control. On day 7, thirty µCi of Na₂³⁵SO₄ in 0.1 ml saline were injected intravenously and the percent ³⁵S incorporation of the injected dose into circulating platelets was measured in blood samples obtained from treated and control mice. Platelet counts and leukocyte counts were made at the same time from blood obtained from the retro-orbital sinus.

DAMI cells = assay: DAMI assay measuring endomitotic activity (polyploidization) of DAMI cells; conditions: for DAMI: Thrombopoietic activity, concentration at which active
[1] = after 1-2 weeks treatment; patient had 37,000-58,000/µl before; cited from earlier work
[2] = Thrombopoeitic activity in various assays (not specified further); conditions: for thrombopoeitic activity in various assays: no activity at concentrations as high as 200 µM
[3] = read-out: active at concentration in the CMK assay
[4] = read-out: CMK(µM), Thrombopoietic activity, concentration at which active, 'inactive @200' given as >200
[5] = read-out: active / inactive at concentration in the DAMI assay
[6] = read-out: DAMI(µM), Thrombopoietic activity, concentration at which active, 'inactive @200' given as >200
[7] = read-out: active at concentration in the DAMI assay

Row | SMILES | minimal effective concentration (CMK cells; [3]) [µM] | minimal effective concentration (CMK cells; [4]) [µM] | minimal effective concentration (DAMI cells; [6]) [µM] | other results
1 | CSCCC(=O)NC1(c2ccccc2Cl)CCC=CC1=O (stereo not shown) [EXAMPLE V, 6-(2-chlorophenyl)-6-(3-(methylthio)propanoyl)amino-2-cyclohexen-1-one] | 6 |  |  | 
2 | NC1(c2ccccc2Cl)CCC=CC1=O (stereo not shown) [V, 6-amino-6-(2-chlorophenyl)-2-cyclohexen-1-one] | 15 | 6 |  | In vivo(% ctl.@ mg/mouse/d) (C57BL6 mice): 131 @ 2 % ctl.; DAMI (DAMI cells; 'inactive @200' given as >200): 25 µM; minimal effective concentration (DAMI cells; [5]): 30 µM
3 | O=C1C=CC(=O)c2ccccc21 [1,4-naphthoquinone, reference compound] |  | < 6 | > 200 | 
4 | Cc1nnc2n1-c1sc(CCC(=O)N3CCOCC3)cc1C(c1ccccc1Cl)=NC2 [WEB 2086, 4-(2-chlorphenyl)-9-methyl-2-[3-(4-morpholinyl)-3-propanon-1-yl]6H-thieno[3,2,f][1,2,4]triazolo[4,3,a,][1,4] diazepin, reference compound] |  | > 200 | > 200 | platelet counts [1]: 140,000-190,000 /µl; minimal effective concentration (DAMI cells; [5]): > 200 µM
5 | NC1(c2ccccc2Cl)CCC=CC1=O (single isomer, unassigned; (+)) [(+)-V, (+)-6-amino-6-(2-chlorophenyl)-2-cyclohexen-1-one] |  |  |  | active at concentration in the CMK assay (CMK cells): 6 µm; CMK (CMK cells; 'inactive @200' given as >200): 6 µM; DAMI (DAMI cells; 'inactive @200' given as >200): 12 µM
6 | NC1(c2ccccc2Cl)CCCCC1=O (stereo not shown) [IV, 2-(amino)-2-(2-chlorophenyl) cyclohexanone, reference compound] |  | > 200 | > 200 | thrombopoeitic activity in various assays [2]: > 200 µM
7 | NC1(c2ccccc2Cl)CCC=CC1=O (single isomer, unassigned; (-)) [(-)-V, (-)-6-amino-6-(2-chlorophenyl)-2-cyclohexen-1-one] | 6 |  |  | CMK (CMK cells; 'inactive @200' given as >200): 6 µM; DAMI (DAMI cells; 'inactive @200' given as >200): 12 µM; minimal effective concentration (DAMI cells; [7]): 6 µM
8 | CNC1(c2ccccc2Cl)CCCCC1=O (stereo not shown) [ketamine (III), 2-(2-chlorophenyl)-2-(methylamino) cyclohexanone, reference compound] |  | > 200 | > 200 | thrombopoeitic activity in various assays [2]: > 200 µM
9 | CC(=O)NC1(c2ccccc2Cl)CCC=CC1=O (stereo not shown) [VI, 6-acetylamino-6-(2-chlorophenyl)-2-cyclohexen-1-one] |  | 6 | 12 | thrombopoeitic activity compared with 5,6-dehydronorketamine ([2]; N-acylated derivative): even more active
10 | NCC(=O)NC1(c2ccccc2Cl)CCC=CC1=O (stereo not shown) [EXAMPLE IV, 6-(2-aminoacetyl)amino-6-(2-chlorophenyl)-2-cyclohexen-1-one] | 6 |  |  | minimal effective concentration (DAMI cells; [7]): 6 µM
11 | O=C(CCCC[C@@H]1SC[C@@H]2NC(=O)N[C@@H]21)NC1(c2ccccc2Cl)CCC=CC1=O (stereo partly shown) [VII, 6-biotinoylamino-6-(2-chlorophenyl)-2-cyclohexen-1-one] |  | 12 | 25 | 
12 | O=C1C=CCCC1 [cyclohexenone, reference compound] |  | 200 | 200 | 
